From ChEMBL document CHEMBL1134178, “Cytotoxic Michael-type amine adducts of alpha-methylene lactones alantolactone and isoalantolactone” (Bioorg Med Chem Lett, 2001)
Values belong to the compound of their own block, whether it stands above or below them.

Legend:
A549 = assay: Inhibitory activity against A549 lung cancer cell line; assay type: functional; conditions: Homo sapiens, read-out: ID50 (the source's name)
COLO = assay: Inhibitory activity against COLO skin melanoma cell line; assay type: functional; conditions: Homo sapiens, read-out: ID50 (the source's name)
[1] = Inhibitory activity against FF1 normal skin cells; assay type: functional; conditions: Homo sapiens, read-out: ID50 (the source's name)
NCI-H520 = assay: Inhibitory activity against H520 lung cancer cell line; assay type: functional; conditions: Homo sapiens, read-out: ID50 (the source's name)
NCI-H460 = assay: Inhibitory activity against H460 lung cancer cell line; assay type: functional; conditions: Homo sapiens, read-out: ID50 (the source's name)
K562 [2] = assay: Inhibitory activity against K562 human leukemia cell line; assay type: functional; conditions: read-out: ID50 (the source's name)
K562 [3] = assay: Effect on cell cycle distribution of K562 cells following treatment of 10 x IC50 for 16 hours and percentage of apoptotic cells (cells with DNA content less than cells in G1 phase) was reported.; assay type: functional, Homo sapiens
K562 [4] = assay: Effect on cell cycle distribution of K562 cells following treatment of 10 x IC50 for 16 hours and percentage of cells in G2/M phase was reported.; assay type: functional, Homo sapiens
K562 [5] = assay: In vitro inhibitory activity against K562 human leukemia cell line; assay type: functional, cell-based
K562 [6] = assay: Effect on cell cycle distribution of K562 cells following treatment of 10 x IC50 for 16 hours and percentage of cells in S phase was reported.; assay type: functional, Homo sapiens
K562 [7] = assay: Effect on cell cycle distribution of K562 cells following treatment of 10 x IC50 for 16 hours and c.v. value was reported.; assay type: functional, Homo sapiens
MCF7 = assay: Inhibitory activity against MCF-7 breast cancer cell line; assay type: functional; conditions: Homo sapiens, read-out: ID50 (the source's name)
P388 = assay: Inhibitory activity against P388 mouse leukemia cell line; assay type: functional; conditions: read-out: ID50 (the source's name)
WiDr = assay: Inhibitory activity against WiDR colon adenocarcinoma cell line; assay type: functional; conditions: Homo sapiens, read-out: ID50 (the source's name)
BT-20 = assay: Inhibitory activity against BT20 breast cancer cell line; assay type: functional; conditions: Homo sapiens, read-out: ID50 (the source's name)
K562 [8] = assay: Evaluated for the effect on cell cycle distribution of K562 cells following treatment of 10 x IC50 for 16 hours and percentage of cells in G1 phase was reported.; assay type: functional, Homo sapiens

SMILES: C=C1CCC[C@]2(C)C[C@H]3OC(=O)[C@@H](CN(CC)CC)[C@H]3C[C@@H]12
IC50 (A549): 0.8 µM
IC50 (COLO): 3.5 µM
IC50 [1]: 1 µM
IC50 (NCI-H520): 0.9 µM
IC50 (NCI-H460): 0.6 µM
IC50 (K562 [2]): 2 µM
Activity (K562 [3]): 4.4%
G2/M (K562 [4]): 10%
IC50 (K562 [5]): 2 µM
S (K562 [6]): 52%
c.v (K562 [7]): 4.3
IC50 (MCF7): 0.8 µM
IC50 (P388): 0.3 µM
IC50 (WiDr): 1.5 µM
IC50 (BT-20): 1.2 µM
G1 (K562 [8]): 39%

SMILES: C=C1CCC[C@]2(C)C[C@H]3OC(=O)[C@@H](CN4CCOCC4)[C@H]3C[C@@H]12
IC50 (K562 [5]): 5 µM

SMILES: C=C1CCC[C@]2(C)C[C@H]3OC(=O)[C@@H](CN(C)C(C)C(O)c4ccccc4)[C@H]3C[C@@H]12 (stereo partly specified)
IC50 (K562 [5]): 3 µM

SMILES: C=C1CCC[C@]2(C)C[C@H]3OC(=O)[C@@H](CN4CCCCC4)[C@H]3C[C@@H]12
IC50 (K562 [5]): 5 µM

SMILES: C=C1C(=O)O[C@@H]2C[C@@]3(C)CCC[C@H](C)C3=C[C@H]12 [HELENINE]
Activity (K562 [3]): 9.9%
G2/M (K562 [4]): 17%
IC50 (K562 [5]): 0.7 µM
S (K562 [6]): 53%
c.v (K562 [7]): 3.4
growth inhibition (GI) (K562 [8]): 30%

SMILES: CCN(CC)C[C@@H]1C(=O)O[C@@H]2C[C@@]3(C)CCC[C@H](C)C3=C[C@H]12
Activity (K562 [3]): 7.3%
G2/M (K562 [4]): 10%
IC50 (K562 [5]): 0.7 µM
S (K562 [6]): 52%
c.v (K562 [7]): 7
G1 (K562 [8]): 38%

SMILES: C=C1CCC[C@]2(C)C[C@H]3OC(=O)[C@@H](CNCc4ccccc4)[C@H]3C[C@@H]12
IC50 (K562 [5]): 15 µM

SMILES: C[C@H]1CCC[C@]2(C)C[C@H]3OC(=O)[C@@H](CN4CCCCC4)[C@H]3C=C12
IC50 (K562 [5]): 2 µM

SMILES: C[C@H]1CCC[C@]2(C)C[C@H]3OC(=O)[C@@H](CN(C)C)[C@H]3C=C12
IC50 (K562 [5]): 2 µM

SMILES: C=C1CCC[C@]2(C)C[C@H]3OC(=O)[C@@H](CN(CCC)CCC)[C@H]3C[C@@H]12
IC50 (K562 [5]): 5 µM

SMILES: C=C1CCC[C@]2(C)C[C@H]3OC(=O)[C@@H](CNCCCN(C)C)[C@H]3C[C@@H]12
IC50 (K562 [5]): 6 µM

Second part, led by results:

IC50 (K562 [5]): 5 µM
SMILES: C=C1CCC[C@]2(C)C[C@H]3OC(=O)[C@@H](CN4CCCC4)[C@H]3C[C@@H]12

IC50 (K562 [5]): 3 µM
SMILES: C=C1CCC[C@]2(C)C[C@H]3OC(=O)[C@@H](CN(C)C)[C@H]3C[C@@H]12

IC50 (K562 [5]): 4 µM
SMILES: C=C1CCC[C@]2(C)C[C@H]3OC(=O)[C@@H](CN(C)CCO)[C@H]3C[C@@H]12

IC50 (K562 [5]): 24 µM
SMILES: C=C1CCC[C@]2(C)C[C@H]3OC(=O)[C@@H](CNC)[C@H]3C[C@@H]12

IC50 (A549): 0.6 µM
IC50 (COLO): 2.1 µM
IC50 (NCI-H520): 0.9 µM
IC50 (NCI-H460): 0.6 µM
IC50 (K562 [2]): 1.2 µM
IC50 (K562 [5]): 1.2 µM
IC50 (MCF7): 0.6 µM
IC50 (P388): 0.4 µM
IC50 (WiDr): 1.4 µM
IC50 (BT-20): 1.2 µM
SMILES: C=C1C(=O)O[C@@H]2C[C@@]3(C)CCCC(=C)[C@@H]3C[C@H]12 [ISOALANTOLACTONE]
IC50 [1]: 1.1 µM
Activity (K562 [3]): 8.2%
G2/M (K562 [4]): 12%
S (K562 [6]): 50%
c.v (K562 [7]): 3.2
growth inhibition (GI) (K562 [8]): 38%
